Assay results as given in ChEMBL document CHEMBL5543073, “Synthesis, biological activity evaluation and mechanism analysis of new ganglioside GM3 derivatives as potential agents for nervous functional recovery” (Eur J Med Chem, 2024).
pIC50: −log10 of the molar value. Active and inactive are the calls of the source. No cut-off for these calls is given here.

What was measured:
[1] = system: SH-SY5Y; test: Cytotoxicity against human SH-SY5Y cells assessed as inhibition of cell viability incubated for 48 hrs by CCK8 assay; format: functional, cell-based
[2] = system: N2a; test: Cytotoxicity against mouse Neuro2a cells assessed as inhibition of cell viability incubated for 48 hrs by CCK8 assay; format: functional, cell-based
[3] = system: PC-12; test: Cytotoxicity against rat PC12 cells assessed as inhibition of cell viability incubated for 48 hrs by CCK8 assay; format: functional, cell-based; conditions: PC-12, 48 h
[4] = system: U-87 MG; test: Cytotoxicity against human U-87 MG cells assessed as inhibition of cell viability incubated for 48 hrs by CCK8 assay; format: functional, cell-based, U-87MG ATCC
[5] = system: SH-SY5Y; test: Neuroprotective effect against MPP+-induced cytotoxicity in human SH-SY5Y cells assessed as increase in cell viability at 50 uM incubated for 24 hrs followed by MPP+ addition measured after 4 hrs by CCK8 assay relative to control; format: functional; conditions: time 28 hrs
[6] = system: N2a; test: Induction of cell proliferation in mouse Neuro2a cells at 50 uM incubated for 48 hrs by CCK8 assay; format: functional, cell-based
[7] = system: N2a; test: Downregulation of Wnt7b level in mouse Neuro2a cells at 50 uM incubated for 48 hrs by Western blot analysis; format: functional, cell-based
[8] = system: A-431; test: Effect on Rac2 gene expression in human A-431 cells by RNA-Seq analysis; format: functional, cell-based
[9] = Half life in C57BL/6 mouse at 10 mg/kg, iv measured for 24 hrs; format: ADME, organism-based; conditions: in vivo
[10] = system: A-431; test: Effect on Wnt7b gene expression in human A-431 cells by RNA-Seq analysis; format: functional, cell-based
[11] = system: N2a; test: Effect on […] level in mouse Neuro2a cells at 50 uM incubated for 48 hrs by Western blot analysis; format: functional, cell-based
[12] = system: Neuron; test: Induction of neurite growth in mouse primary neurons assessed as increase in MAP2 level incubated for 48 hrs in presence of NGF by Western blot analysis; format: functional, cell-based
[13] = Clearance in C57BL/6 mouse at 10 mg/kg, iv measured for 24 hrs; format: ADME, organism-based; conditions: in vivo
[14] = system: Neuron; test: Induction of neurite growth in mouse primary neurons at 50 uM incubated for 48 hrs in presence of NGF by imaging analysis; format: functional, cell-based
[15] = system: Neuron; test: Induction of neurite growth in mouse primary neurons assessed as increase in neurite length at 50 uM incubated for 48 hrs by imaging analysis; format: functional, cell-based

half-life [9] [h] | CL [13] [µL/min/mg] | Structure (SMILES) | pIC50 [1] | pIC50 [2] | pIC50 [3] | pIC50 [4] | Activity [5] [%] | Activity [6] | Activity [7] | Activity [8] | Activity [10] | Activity [11] | Activity [12] | Activity [14] | Activity [15]
 |  | CCCCCCCCCCCCC/C=C/[C@@H](O)[C@H](CO[C@@H]1O[C@H](CO)[C@@H](O[C@@H]2O[C@H](CO)[C@H](O)[C@H](O[C@]3(C(=O)O)C[C@H](O)[C@@H](NC(=O)c4ccncc4)C([C@@H](O)[C@H](O)CO)O3)[C@H]2O)[C@H](O)[C@H]1O)NC(=O)CCCCCCCCCCCCCCCCC (some centres not stated) | < 3.70 | < 3.70 | < 3.70 | < 3.70 |  |  |  |  |  |  |  |  | 
 |  | CCCCCCCCCCCCC/C=C/[C@@H](O)[C@H](CO[C@@H]1O[C@H](CO)[C@@H](O[C@@H]2O[C@H](CO)[C@H](O)[C@H](O[C@]3(C(=O)O)C[C@H](O)[C@@H](NC(=O)c4cccc([N+](=O)[O-])c4)C([C@@H](O)[C@H](O)CO)O3)[C@H]2O)[C@H](O)[C@H]1O)NC(=O)CCCCCCCCCCCCCCCCC (some centres not stated) | < 3.70 | < 3.70 | < 3.70 | < 3.70 | 9.3 | Active |  |  |  |  |  |  | 
 |  | CCCCCCCCCCCCC/C=C/[C@@H](O)[C@H](CO[C@@H]1O[C@H](CO)[C@@H](O[C@@H]2O[C@H](CO)[C@H](O)[C@H](O[C@]3(C(=O)O)C[C@H](O)[C@@H](NC(=O)Cc4ccc(Br)cc4)C([C@@H](O)[C@H](O)CO)O3)[C@H]2O)[C@H](O)[C@H]1O)NC(=O)CCCCCCCCCCCCCCCCC (some centres not stated) | < 3.70 | < 3.70 | < 3.70 | < 3.70 |  |  |  |  |  |  |  |  | 
 |  | CCCCCCCCCCCCC/C=C/[C@@H](O)[C@H](CO[C@@H]1O[C@H](CO)[C@@H](O[C@@H]2O[C@H](CO)[C@H](O)[C@H](O[C@]3(C(=O)O)C[C@H](O)[C@@H](NC(=O)c4cc(C)cc(C)c4)C([C@@H](O)[C@H](O)CO)O3)[C@H]2O)[C@H](O)[C@H]1O)NC(=O)CCCCCCCCCCCCCCCCC (some centres not stated) | < 3.70 | < 3.70 | < 3.70 | < 3.70 |  |  |  |  |  |  |  |  | 
 |  | CCCCCCCCCCCCC/C=C/[C@@H](O)[C@H](CO[C@@H]1O[C@H](CO)[C@@H](O[C@@H]2O[C@H](CO)[C@H](O)[C@H](O[C@]3(C(=O)O)C[C@H](O)[C@@H](NC(=O)Cc4ccc(C)cc4)C([C@@H](O)[C@H](O)CO)O3)[C@H]2O)[C@H](O)[C@H]1O)NC(=O)CCCCCCCCCCCCCCCCC (some centres not stated) | < 3.70 | < 3.70 | < 3.70 | < 3.70 |  |  |  |  |  |  |  |  | 
49.3 | 0.467 | CCCCCCCCCCCCC/C=C/[C@@H](O)[C@H](CO[C@@H]1O[C@H](CO)[C@@H](O[C@@H]2O[C@H](CO)[C@H](O)[C@H](O[C@]3(C(=O)O)C[C@H](O)[C@@H](NC(=O)Cc4cccc([N+](=O)[O-])c4)C([C@@H](O)[C@H](O)CO)O3)[C@H]2O)[C@H](O)[C@H]1O)NC(=O)CCCCCCCCCCCCCCCCC (some centres not stated) | < 3.70 | < 3.70 | < 3.70 | < 3.70 | 18.8 | Active | Active | Active | Active | inactive | Active | Active | Active
